What was measured:
[1] = test system: human sebocytes immortalized in culture, derived from the SZ95 line; assay: Quantity of lipids produced by sebocytes (Nile Red fluorescence); format: cell-based; conditions: 100 μM, 2 days of treatment, total lipids, SZ95 sebocytes at confluence
Protocol: The test compounds were evaluated on a model of human sebocytes immortalized in culture, derived from the SZ95 line described in Zouboulis, C. C. et al., Establishment and Characterization of an Immortalized Human Sebaceous Gland Cell Line, J. Invest. Dermatol., 113, 1011-1020 (1999).
The test consists of measuring the quantity of lipids produced by the sebocytes of the cell line (at confluence), with or without active agents present, diluted in DMSO, in such a way that the final amount of DMSO in the basal medium is 0.1%. After 2 days of treatment, the adhering cells are treated with Nile Red (1 μg/ml). The lipids content is then quantified by measuring the fluorescence of the stain (two excitation/emission pairs: 485-540 nm for neutral lipids and 540-620 nm for non-neutral lipids). The results are given for total lipids (combining both measurements).
The test is carried out in decaplicate (assayed products and control) in a 96-well plate and renewed 3 times.

[2] = Stability in solution, hydrolysis of the esters by HPLC; format: physicochemical; conditions: hydrolysis of glucopyranose linoleate; 0.1 wt. % in ethanol/isopropanol/water (64/16/20 by volume), 45° C., 2 months
Protocol: The stability of the compounds according to the invention was evaluated (measurement of hydrolysis of the esters).
Solutions were prepared at 0.1 wt. % of the compounds in ethanol/isopropanol/water mixture (64/16/20 by volume). These solutions were left in a thermostat at 45° C., for 2 months.
Then the percentage hydrolysis of glucopyranose linoleate was determined by HPLC.

[3] = test system: SZ 95 sebocytes; assay: Cytotoxicity on sebocytes, production of LDH in the basal medium; format: cell-based; conditions: for Variation, LDH/control: 100 μM
Protocol: The tolerance of the glucose ester at 6 of linoleic acid was determined by measuring the cytotoxicity of the product on SZ 95 sebocytes, with linoleic acid alone as control.
The test conditions are identical to those examined in example 1. Cytotoxicity is measured by the production of LDH in the basal medium, according to the method described in Thomas J P et al.; Lethal damage to endothelial cells by oxidized low density lipoprotein: role of selenoperoxidases in cytoprotection against lipid hydroperoxide and iron mediated reactions. Journal of lipid research 34: 479-490. 1993.

[4] = Peroxidizability in the air, proportion of intact molecules by HPLC; format: physicochemical; conditions: storage for two months, at room temperature (about 20 to 25° C.), HPLC with UV detection (210 nm)
Protocol: The purpose of this study is to evaluate the peroxidizability of various molecules or mixtures of molecules by carrying out various tests. These tests consist of measuring the proportion of molecules still intact after storage for two months, in air, at room temperature (about 20 to 25° C.). The loss of the starting product is monitored by HPLC with UV detection (210 nm).

| Compound | Variation, lipid/CONTROL [1] | % hydrolysis [2] | intact molecules [4] | also measured |
| --- | --- | --- | --- | --- |
| CCCCCC=CCC=CCCCCCCCC(=O)NC1C(O)OC(CO)C(O)C1O (stereo not shown) | +40% |  |  |  |
| CCCCCC=CCC=CCCCCCCCC(=O)O[C@H]1[C@H](O)[C@@H](CO)OC(O)[C@@H]1O (stereo partly drawn) [3-O-octadeca-9,12-dienoyl-D-glucopyranose] |  | 30% |  |  |
| CCCCCC=CCC=CCCCCCCCC(=O)OC[C@H]1OC(O)[C@H](O)[C@@H](O)[C@@H]1O (stereo partly drawn) [6-O-octadeca-9,12-dienoyl-D-glucopyranose] |  | 7% | 30% | Variation, LDH/control ([3]; SZ 95 sebocytes, LDH in the basal medium): Not significant; cytotoxicity with respect to sebocytes (in words) ([3]; SZ 95 sebocytes): No cytotoxicity was found |
| C[C@]12CC[C@H](O)CC1=CC[C@@H]1[C@@H]2CC[C@]2(C)C(=O)CC[C@@H]12 [DHEA, dehydroepiandrosterone, reference compound] | +80% |  |  |  |
| CCCCCC=CCC=CCCCCCCCC(=O)O [Linoleic acid, octadeca-9,12-dienoic acid, reference compound] |  |  | no longer contain intact molecules | Variation, LDH/control ([3]; human): +20% |
| CCCCC/C=C\C/C=C\CCCCCCCC(=O)OC [methyl linoleate] |  |  | no longer contain intact molecules |  |
